Here are results for 15 compounds from patent US20160158200A1, “Combinations of Hepatitis C Virus Inhibitors” (priority 2013, published 2016).

This test deals with HCV genotype-1a variant with glutamine 30 changed to glutamate in the NS5A protein. Format: cell-based. The following applies: test compound titrated with BMS-790052 fixed at 200 nM; genotype 1a Q30E replicon. The method, boiled down: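 Synergy was assessed by combining several fixed amounts of an NS5A-targeting compound with a titration of the second compound of interest.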

Some results are limits rather than exact numbers.

For the compound `CC(C)(C)[C@H](NC(=O)C(=O)N1CCCC1)c1nc(-c2ccc(-c3ccc(-c4c[nH]c([C@@H](NC(=O)C(=O)N5CCCC5)C(C)(C)C)n4)cc3)cc2)c[nH]1` [Compound W-21], the “Fold-Synergistic 1a (Q30E)” value was more than 100 fold.
In the case of `CO[C@H](C)[C@H](NC(=O)C1CCC(F)(F)CC1)c1nc(-c2ccc(-c3ccc(-c4c[nH]c([C@@H](NC(=O)C5CCC(F)(F)CC5)[C@@H](C)OC)n4)cc3)cc2)c[nH]1` [Compound L-98], the “Fold-Synergistic 1a (Q30E)” value is given as less than 10 fold.
With `CC(C)(C)OC(=O)NC1CCCC(C(=O)NC(c2nc(-c3ccc(-c4ccc(-c5c[nH]c(C(NC(=O)C6CCCC(NC(=O)OC(C)(C)C)C6)C(C)(C)C)n5)cc4)cc3)c[nH]2)C(C)(C)C)C1` (mixture of isomers) [Compound S-266] the figure was more than 100 fold.
Consider `CC(C)CC(=O)N[C@H](c1nc(-c2ccc(-c3ccc(-c4c[nH]c([C@@H](NC(=O)CC(C)C)C(C)(C)C)n4)cc3)cc2)c[nH]1)C(C)(C)C` [Compound N-117], for which the “Fold-Synergistic 1a (Q30E)” value is more than 100 fold.
With `CC(C)(C)[C@H](NC(=O)C(=O)N1C(C)(C)CCCC1(C)C)c1nc(-c2ccc(-c3ccc(-c4c[nH]c([C@@H](NC(=O)C(=O)N5C(C)(C)CCCC5(C)C)C(C)(C)C)n4)cc3)cc2)c[nH]1` [Compound W-248] the figure was more than 100 fold; with `CC(C)(C)[C@H](NC(=O)C(=O)c1ccco1)c1nc(-c2ccc(-c3ccc(-c4c[nH]c([C@@H](NC(=O)C(=O)c5ccco5)C(C)(C)C)n4)cc3)cc2)c[nH]1` [Compound W-20], more than 100 fold.
With `CC(C)[C@H](N[S@@+]([O-])C(C)(C)C)c1ncc(-c2ccc(-c3ccc(-c4cnc([C@@H](N[S@+]([O-])C(C)(C)C)C(C)C)[nH]4)cc3)cc2)[nH]1` [Compound Y-60] the figure was more than 100 fold; with `CC(C)(C)[C@H](NC(=O)c1ccccc1F)c1nc(-c2ccc(-c3ccc(-c4c[nH]c([C@@H](NC(=O)c5ccccc5F)C(C)(C)C)n4)cc3)cc2)c[nH]1` [Compound P-23], more than 100 fold; with `CC(C)[C@H](NC(=O)C(C)(C)C(O)C1CC(F)(F)C1)c1nc(-c2ccc(-c3ccc(-c4c[nH]c([C@@H](NC(=O)C(C)(C)C(O)C5CC(F)(F)C5)C(C)C)n4)cc3)cc2)c[nH]1` (single isomer, unassigned) [Compound N-145B], more than 100 fold.
Consider `CC(C)(C)[C@H](NC(=O)C1(c2ccc(Cl)cc2)CCC1)c1nc(-c2ccc(-c3ccc(-c4c[nH]c([C@@H](NC(=O)C5(c6ccc(Cl)cc6)CCC5)C(C)(C)C)n4)cc3)cc2)c[nH]1` [Compound N-57], for which the “Fold-Synergistic 1a (Q30E)” value is given as more than 100 fold.
With `CC(C)(C)C(NC(=O)C1CCCCN1CC(F)(F)F)c1nc(-c2ccc(-c3ccc(-c4c[nH]c(C(NC(=O)C5CCCCN5CC(F)(F)F)C(C)(C)C)n4)cc3)cc2)c[nH]1` [Compound L-51] the figure was more than 100 fold; with `COCCC(=O)N1C[C@H](F)C[C@H]1C(=O)N[C@H](c1nc(-c2ccc(-c3ccc(-c4c[nH]c([C@@H](NC(=O)[C@@H]5C[C@@H](F)CN5C(=O)CCOC)C(C)(C)C)n4)cc3)cc2)c[nH]1)C(C)(C)C` [Compound W-103], more than 100 fold.
With `CN1CCN(C(=O)C(=O)N[C@H](c2nc(-c3ccc(-c4ccc(-c5c[nH]c([C@@H](NC(=O)C(=O)N6CCN(C)CC6)C(C)(C)C)n5)cc4)cc3)c[nH]2)C(C)(C)C)CC1` [Compound W-35] the figure was more than 100 fold; with `COC(=O)N[C@H](C(=O)N1CCC[C@H]1c1ncc(-c2ccc(-c3ccc(-c4cnc([C@@H](NC(=O)[C@@H]5CCCN5C(=O)OC(C)(C)C)C(C)(C)C)[nH]4)cc3)cc2)[nH]1)C(C)C` [Compound B-191], more than 10 fold.
With `CC(C)(C)C(NC(=O)C1CCCCC1c1ccccc1)c1nc(-c2ccc(-c3ccc(-c4c[nH]c(C(NC(=O)C5CCCCC5c5ccccc5)C(C)(C)C)n4)cc3)cc2)c[nH]1` (mixture of isomers) [Compound S-269] the figure was more than 100 fold.
